This assay concerns the target T1, aldose reductase (Bos taurus, UniProt P16116).
T1 construct: isolated in known manner from bovine lenses; from tissue; host or cells: bovine lens
The experiment in a line: in vitro inhibition of partially purified aldose reductase (reduction of glucose to sorbitol, spectrophotometric). Type of assay: biochemical. The following applies: partially purified enzyme from bovine lenses. How it is done:
Thus, partially purified aldose reductase is isolated in known manner from bovine lenses. The percentage inhibition of this enzyme's ability in vitro to catalyse the reduction of aldoses to polyhydric alcohols, and particularly to reduce glucose to sorbitol, caused by a test compound is then determined using standard spectrophotometric methods.

From patent US5096918A, “Isoindoline nitromethane derivatives” (Imperial Chemical Industries PLC, priority 1989, dated 1992) come the findings set out here.

Consider `O=[N+]([O-])CS(=O)(=O)N1CCOCC1` [N-(nitromethylsulphonyl)morpholine], for which the IC50 (commonly the concentration needed to halve the response being measured) was 880 nM.

For the molecule `O=[N+]([O-])CS(=O)(=O)N1CCCCC1` [Example 1, N-(nitromethylsulphonyl)piperidine], the IC50 is 330 nM.
